Data set [1] concerns Salmonella typhimurium TA1535. The following applies: cadmium chloride 0.5 mM as pro-mutagen, N-Methyl-N-nitrosourea 180 μM as mutagen, candidate in various concentrations; mutant revertants on solid media. How it is done: The operating hypothesis was tested with an AMES test (as described e.g. by Mandel and Ryser, 1984) based platform using Salmonella typhimurium TA1535 (Standard Ames Tester Strain), cadmium chloride as pro-mutagen (0.5 mM final concentration during treatment), N-Methyl-N-nitrosourea as mutagen (180 μM final concentration during treatment) and EDTA, phytic acid (IP6) and Unithiol (i.e. DMPS) as candidate cadmium-promoted mutagenicity antidotes (in various concentrations, see FIGS. 1 and 2).
The experiment included the following steps: • 1. Healthy growth of bacterial cells • 2. Absorption of cadmium chloride (as a non-genotoxic metabolic poison) under conditions of reduced metabolism (bacteria chilled on ice) • 3. Addition of candidate antidotes and metabolic activation (fresh growth medium, 37° C.) • 4. Addition of N-methyl-N-nitrosourea under metabolically active conditions to fix mutations (fresh growth medium, 37° C.) • 5. Screening for mutant revertants on solid media (standard, second generation Petri dish-based AMES test)

For data set [2], the system named is Salmonella typhimurium. Conditions: synergistic with two nitrosoamines; cited from earlier work.

Take `O=S(=O)(O)CC(S)CS` (stereo not shown) [Unithiol, 2,3-Dimercapto-1-propanesulfonic acid]: the “inhibition of mutagenicity-promoting synergy between cadmium and N-methyl-N-nitrosourea” value in data set [1] is reported as “dose-dependent inhibition”.
The same measure, in the same setting: next, `O=C(O)CN(CCN(CC(=O)O)CC(=O)O)CC(=O)O` [EDTA]: “did not inhibit”.
For `O=P(O)(O)O[C@H]1[C@H](OP(=O)(O)O)[C@@H](OP(=O)(O)O)[C@H](OP(=O)(O)O)[C@@H](OP(=O)(O)O)[C@H]1OP(=O)(O)O` [phytic acid], the “inhibition of mutagenicity-promoting synergy between cadmium and N-methyl-N-nitrosourea” value in data set [1] was “dose-dependent inhibition”.
For `[Cl][Cd][Cl]` [cadmium chloride], the “increase of the mutagenicity of two common nitrosoamines, greater than expected from simple additivity” value in data set [2] was “up to 30 fold”.

The record behind these values is US20240366637A1, “Compounds inhibiting the synergistic carsinogenic effect of heavy metals in the presence of other carcinogens for use in the treatment of cancer” (priority 2021, published 2024).
